Data taken from ChEMBL document CHEMBL1759896, “Asymmetric total synthesis of (+)- and (-)-clusianone and (+)- and (-)-clusianone methyl enol ether via ACC alkylation and evaluation of their anti-HIV activity” (Bioorg Med Chem Lett, 2011).
Active and inactive are the calls of the source. The rule behind the calls is not given here.

Key:
Format in all cases: functional, organism-based
[1] = system: Human immunodeficiency virus 1; assay: Antiviral activity against HIV1 Env-pseudovirus infected in mouse 3T3.T4.CCR5 cells after 2 days by luciferase assay
[2] = system: Human immunodeficiency virus 1; assay: Antiviral activity against HIV1 Env-pseudovirus infected in human Jurkat E6-1 cells after 2 days by luciferase assay; details: for IC50: Human immunodeficiency virus 1, Jurkat, 48 h
[3] = system: Human immunodeficiency virus 1; assay: Antiviral activity against HIV1 MN infected in human C8166 cells; details: Human immunodeficiency virus 1, MN

## COC1=C(C(=O)c2ccccc2)C(=O)[C@]2(CC=C(C)C)C[C@H](CC=C(C)C)C(C)(C)C1(CC=C(C)C)C2=O
[1]; 3t3.t4.ccr5
  IC50: Not Active

## CC(C)=CC[C@H]1C[C@]2(CC=C(C)C)C(=O)[C@@](CC=C(C)C)(C(=O)C(C(=O)c3ccccc3)=C2O)C1(C)C (stereo in doubt; 1)
[2]
  Activity: Active

## CC(C)=CC[C@H]1C[C@]2(CC=C(C)C)C(=O)[C@@](CC=C(C)C)(C(=O)C(C(=O)c3ccccc3)=C2O)C1(C)C (stereo in doubt; 1) [6-EPI-CLUSIANONE]
[1]; Human immunodeficiency virus 1, 3T3.T4.CCR5, 48 h, read-out: IC50
  IC50: 1.53 µM
[3]
  EC50: 0.02 µM

## CC(C)=CC[C@H]1C[C@]2(CC=C(C)C)C(=O)[C@@](CC=C(C)C)(C(=O)C(C(=O)c3ccccc3)=C2O)C1(C)C (stereo in doubt; 2)
[2]
  Activity: Active

## CC(C)=CC[C@H]1C[C@]2(CC=C(C)C)C(=O)[C@@](CC=C(C)C)(C(=O)C(C(=O)c3ccccc3)=C2O)C1(C)C (stereo in doubt; 2) [6-EPI-CLUSIANONE]
[1]; 3t3.t4.ccr5, read-out: IC50
  IC50: 1.13 µM

## Cc1ccnc2c1NC(=O)c1cccnc1N2C1CC1 [NEVIRAPINE]
[2]
  IC50: 0.04 µM

## Cc1cn([C@H]2C[C@H](N=[N+]=[N-])[C@@H](CO)O2)c(=O)[nH]c1=O [ZIDOVUDINE]
[2]
  IC50: 0.12 µM
